CCOc1ccc2ccccc2c1C(=O)N[C@@H]1C(=O)N2[C@@H]1SC(C)(C)[C@@H]2C(=O)[O-].[Na+]
solubility (mole fraction)
Details	278.15 K	283.15 K	288.15 K	293.15 K	298.15 K	303.15 K	308.15 K	313.15 K	318.15 K
in acetone	4.88e-05	7.1e-05	0.000106	0.000158	0.000202	0.000255	0.000309	0.000353	0.000401
in acetonitrile	2.25e-05	2.97e-05	4.09e-05	6.27e-05	7.46e-05	9.3e-05	0.000111	0.000128	0.000144
in ethanol	0.000161	0.000201	0.000246	0.00032	0.000372	0.000442	0.000509	0.000562	0.000615
in isopropanol	0.000155	0.000177	0.000201	0.000229	0.000261	0.000297	0.000337	0.000367	0.000395
in methanol	0.000605	0.000803	0.00101	0.00121	0.00149	0.00173	0.002	0.00226	0.00251
in n-butyl acetate	2.14e-05	3.21e-05	4.3e-05	5.85e-05	7.24e-05	8.6e-05	9.63e-05	0.000108	0.000117

Source: BigSolDB 2.1
